The values below come from BindingDB's records for doi:10.1038/nchembio.1930 (Albert Einstein College of Medicine, 2015).

Settings in all cases: 25 °C
The target in experiment [1] is Isocitrate dehydrogenase [NADP], mitochondrial [R140Q] (Homo sapiens, UniProt P48735, R140Q). Put plainly: RapidFire-MS/MS and NADPH Assays. Here is the method:
(§1) Reactions were conducted in duplicate and quenched with final concentrations of 100 mM EDTA. After each addition plates were centrifuged for 60 s to ensure complete mixing of reagents. […] For the RapidFire-MS/MS analysis, a 0.5 μL aliquot of each well was diluted 200-fold into a separate analysis plate containing 100 μL of a f

Experiment [2] has as its target Isocitrate dehydrogenase [NADP], mitochondrial [R172S] (Homo sapiens, UniProt P48735, R172S). Put plainly: RapidFire-MS/MS and NADPH Assays. Here is the method: as §1
Experiment [3] has as its target Isocitrate dehydrogenase [NADP] cytoplasmic [R132H] (Homo sapiens, UniProt O75874, R132H). Put plainly: RapidFire-MS/MS and NADPH Assays. Here is the method:
as §1

In experiment [4] the target is Isocitrate dehydrogenase [NADP] cytoplasmic [R132C] (Homo sapiens, UniProt O75874, R132C). The experiment in a line: RapidFire-MS/MS and NADPH Assays. The method, then: as §1
Sequence of Isocitrate dehydrogenase [NADP] cytoplasmic [R132C] (O75874 2-414 R132C limits assumed): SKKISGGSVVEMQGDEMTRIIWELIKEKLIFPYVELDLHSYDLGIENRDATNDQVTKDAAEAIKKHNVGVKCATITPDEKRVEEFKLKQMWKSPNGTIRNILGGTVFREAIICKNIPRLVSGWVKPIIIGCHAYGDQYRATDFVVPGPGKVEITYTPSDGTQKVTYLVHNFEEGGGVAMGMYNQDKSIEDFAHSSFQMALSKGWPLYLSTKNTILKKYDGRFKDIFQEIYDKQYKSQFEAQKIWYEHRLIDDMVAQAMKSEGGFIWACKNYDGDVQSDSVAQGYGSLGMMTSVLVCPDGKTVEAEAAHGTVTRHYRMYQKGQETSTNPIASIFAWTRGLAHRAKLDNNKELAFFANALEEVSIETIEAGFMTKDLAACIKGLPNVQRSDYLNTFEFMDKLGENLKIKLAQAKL
For experiment [5], the target named is Isocitrate dehydrogenase [NADP] cytoplasmic [R132G] (Homo sapiens, UniProt O75874, R132G). Put plainly: RapidFire-MS/MS and NADPH Assays. The method, then:
as §1

The target in experiment [6] is Isocitrate dehydrogenase [NADP] cytoplasmic (Homo sapiens, UniProt O75874). Put plainly: Diaphorase/Resazurin Coupled Assay. Here is the method:
(§2) For WT IDH1 and IDH2, reactions were conducted at room temperature in 384-well Greiner black microtiter plates in a total volume of 10 μL of assay buffer. […] Reactions were conducted in duplicate and run kinetically. After each addition, plates were centrifuged for 60 s to ensure complete mixing of reagents.
For orientation: Resazurin is reduced to fluorescent resorufin, in cell work by metabolically active cells.

Experiment [7] deals with T1, Isocitrate dehydrogenase [NADP], mitochondrial (Homo sapiens, UniProt P48735).
T1 sequence (P48735 whole entry): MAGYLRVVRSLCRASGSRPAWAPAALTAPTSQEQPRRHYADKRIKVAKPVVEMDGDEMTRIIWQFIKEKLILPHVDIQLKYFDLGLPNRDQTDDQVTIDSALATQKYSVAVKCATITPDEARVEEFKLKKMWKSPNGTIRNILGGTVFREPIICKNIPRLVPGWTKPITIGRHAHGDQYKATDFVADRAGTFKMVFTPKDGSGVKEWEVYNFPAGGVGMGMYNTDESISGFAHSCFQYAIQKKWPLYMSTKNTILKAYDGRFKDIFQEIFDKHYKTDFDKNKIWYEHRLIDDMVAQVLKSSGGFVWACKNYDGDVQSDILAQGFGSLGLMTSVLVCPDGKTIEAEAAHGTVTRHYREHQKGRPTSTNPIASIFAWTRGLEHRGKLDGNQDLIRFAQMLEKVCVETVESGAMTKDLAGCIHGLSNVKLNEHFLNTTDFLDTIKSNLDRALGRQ
The experiment in a line: Diaphorase/Resazurin Coupled Assay. Here is the method:
as §2

Structures are written as SMILES.

Sequence of Isocitrate dehydrogenase [NADP], mitochondrial [R172S] (P48735 40-452 R172S limits assumed): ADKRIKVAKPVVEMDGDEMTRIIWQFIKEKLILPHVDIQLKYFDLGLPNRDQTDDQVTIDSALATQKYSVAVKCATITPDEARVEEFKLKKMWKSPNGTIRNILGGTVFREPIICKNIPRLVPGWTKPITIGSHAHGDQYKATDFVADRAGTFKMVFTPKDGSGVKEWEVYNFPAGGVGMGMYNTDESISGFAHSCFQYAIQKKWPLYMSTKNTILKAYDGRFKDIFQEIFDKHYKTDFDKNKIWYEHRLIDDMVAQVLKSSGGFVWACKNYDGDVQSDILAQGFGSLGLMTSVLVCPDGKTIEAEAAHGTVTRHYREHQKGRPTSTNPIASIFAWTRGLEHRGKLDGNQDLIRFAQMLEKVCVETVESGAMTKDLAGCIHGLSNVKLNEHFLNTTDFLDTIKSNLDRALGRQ
Sequence of Isocitrate dehydrogenase [NADP], mitochondrial [R140Q] (P48735 40-452 R140Q limits assumed): as the sequence (P48735 40-452 R172S limits assumed) above, with R101Q, S133R counted along it
Sequence of Isocitrate dehydrogenase [NADP] cytoplasmic [R132H] (O75874 2-414 R132H limits assumed): as the sequence (O75874 2-414 R132C limits assumed) above, with C131H counted along it
Sequence of Isocitrate dehydrogenase [NADP] cytoplasmic [R132G] (O75874 2-414 R132G limits assumed): as the sequence (O75874 2-414 R132C limits assumed) above, with C131G counted along it
Sequence of Isocitrate dehydrogenase [NADP] cytoplasmic (O75874 whole entry): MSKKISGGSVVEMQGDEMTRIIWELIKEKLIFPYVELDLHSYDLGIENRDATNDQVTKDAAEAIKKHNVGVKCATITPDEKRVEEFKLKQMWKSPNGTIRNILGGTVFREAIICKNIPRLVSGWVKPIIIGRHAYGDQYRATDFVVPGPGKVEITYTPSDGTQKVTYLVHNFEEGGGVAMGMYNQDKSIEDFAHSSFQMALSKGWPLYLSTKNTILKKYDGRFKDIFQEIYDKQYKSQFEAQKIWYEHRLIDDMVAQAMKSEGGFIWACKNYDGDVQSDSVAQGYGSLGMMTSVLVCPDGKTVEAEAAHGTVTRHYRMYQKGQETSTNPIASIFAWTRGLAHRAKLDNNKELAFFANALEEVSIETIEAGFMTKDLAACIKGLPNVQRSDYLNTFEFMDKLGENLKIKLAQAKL

As usually defined, the IC50 is the concentration that gives 50% inhibition. A low value points to greater potency in that assay. As to `Cc1cccc(NC(=O)c2nn(Cc3c[nH]cn3)c3c2CN(C(=O)c2ccc[nH]2)CC3)c1` [GSK990], the IC50 in experiment [1] is above 100 µM; in experiment [2] it was above 100 µM; in experiment [3], 10.9 µM; in experiment [4], 4.49 µM; in experiment [5], 23.3 µM; in experiment [6], above 100 µM. In addition, the half-inhibitory concentration (IC50) in experiment [7] is above 100 µM.

On to `C[C@H](O)c1cccc(NC(=O)c2nn(Cc3ccc(F)cc3)c3c2CN(C(=O)c2ccc[nH]2)C[C@H]3C)c1` [GSK321], for which the IC50 was determined as 1.36 µM in experiment [1], 1.03 µM in experiment [2] and 0.496 µM in experiment [7].
